The values that follow are results of earlier work, collected in patent EP1239029B1, “Cleaning compositions” (UNILEVER PLC, priority 2001, dated 2002).

Like-named read-outs stand apart in the source and are kept apart here.

The mark [1] stands for this setting: other common materials, by contrast, at 20°C.

`O=BO[O-].[Na+]` [Sodium perborate anhydrous]: the “Water Solubility (g/100g)” value under setting [1] is given as 3.7 g/100g.
In the case of `O=P(O)(O)OP(=O)(O)OP(=O)(O)O` [Sodium tripolyphosphate anhydrous], the “Water Solubility (g/100g)” value under setting [1] was 15 g/100g.
As for `NC(N)=O` [Urea], the “Water Solubility (g/100g)” value (highly water-soluble materials, grams of solid to form a saturated solution in 100 grams of water at 20°C) is listed as above 100 g/100g.
